Laboratory results published in patent US20240174634A1, “Aldehyde Dehydrogenase Inhibitors and Their Therapeutic Use” (priority 2020, published 2024).

Assays:
ALDH1A1 = molecular target: T1, ALDH1A1 (Homo sapiens, UniProt P00352); assay: Selectivity biochemical assay, NAD(P)H-Glo Detection System
T1 construct: His-tag; made in house; host or cells: E. coli Rosetta (DE3)
T1 sequence (P00352 1-501): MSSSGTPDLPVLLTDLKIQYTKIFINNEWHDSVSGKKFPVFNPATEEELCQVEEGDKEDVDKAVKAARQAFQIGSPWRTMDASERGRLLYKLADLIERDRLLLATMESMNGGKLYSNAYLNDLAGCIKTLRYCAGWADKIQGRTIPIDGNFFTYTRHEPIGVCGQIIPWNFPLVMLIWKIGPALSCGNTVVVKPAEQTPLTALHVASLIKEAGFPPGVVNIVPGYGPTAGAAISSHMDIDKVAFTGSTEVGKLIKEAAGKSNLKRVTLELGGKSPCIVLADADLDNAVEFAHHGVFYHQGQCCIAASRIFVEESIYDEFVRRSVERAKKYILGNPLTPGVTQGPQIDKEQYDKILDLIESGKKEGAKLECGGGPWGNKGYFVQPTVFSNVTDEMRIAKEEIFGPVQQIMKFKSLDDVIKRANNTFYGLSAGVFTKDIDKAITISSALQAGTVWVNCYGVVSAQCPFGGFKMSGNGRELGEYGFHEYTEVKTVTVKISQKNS
Description: (§1) Cloning: Open reading frames corresponding to the protein coding sequences of full length human ALDH1A1 (Uniprot ID P00352), ALDH1A2 (094788) and ALDH1A3 (P47895) were polymerase chain reaction (PCR) amplified from human cDNA and inserted into the multi-cloning sites of the commercially available (Novagen) E. coli expression vectors pET47b (ALDH1A1, EcoRI restriction site; ALDH1A2, BamHI and EcoRI sites) or pET28a (ALDH1A3, NdeI and BamHI sites), using standard molecular genetic techniques. Recombinant DNA products were sequence verified prior to use in expression studies.
(§2) Expression: Expression constructs were transformed into the E. coli strain Rosetta (DE3) (Merck) and individual colonies used to inoculate 10 mL lysogen broth (LB) medium supplemented with kanamycin and chloramphenicol at 50 μg/mL and 34 μg/mL, respectively. Cultures were grown to saturation overnight at 37° C., prior to being used to sub-inoculate fresh 1 L LB medium cultures (plus antibiotics, as before). 1 L cultures were grown at 37° C., 200 rpm, throughout the day until the optical density at 600 nm (OD600) reached ˜0.8, at which point growth temperature was reduced to 18° C. and 1 mM isopropyl β-d-1-thiogalacto pyranoside (IPTG) added to induce protein expression.
(§3) Cultures were left overnight (at least 16 h) under these conditions and the following day harvested by centrifugation (4000 G, 10 minutes). Culture supernatant was discarded and cell pellets stored at −80° C. until further processing.
(§4) Purification: Cell pellets were thawed on ice, re-suspended in Ni Affinity Buffer A (20 mM HEPES pH 7.5, 300 mM NaCl, 20 mM imidazole, 1 mM tris(2-carboxyethyl)phosphine (TCEP)) with protease inhibitors (cOmplete Ultra protease inhibitor, Roche), and lysed by sonication. Lysates were clarified by centrifugation at 18,000 G, 4° C., for 40 minutes, and loaded directly onto a pre-equilibrated (Buffer A) 5 mL HisTrap Fast Flow column (GE Healthcare) by way of an AKTA Fast Protein Liquid Chromatography (FPLC) system. The column was sequentially treated with 6 column volumes (CV) 100% Buffer A, 8 CV of 90% Buffer A:10% Buffer B (20 mM 4-(2-hydroxyethyl)-1-piperazineethanesulfonic acid (HEPES) pH 7.5, 300 mM NaCl, 500 mM imidazole, 1 mM TCEP) and finally a linear gradient from 10-70% Buffer B over 8 CV to elute recombinant His-tagged protein. Relevant fractions (as measured by 280 nm absorbance) collected during elution were pooled and subjected to further purification by size exclusion chromatography (Superdex 200 26/600, GE Healthcare, running buffer 20 mM 2-(carbamoylmethylamino)ethanesulfonic acid (ACES) pH 7.5, 1 mM TCEP). Relevant fractions from this step were pooled, aliquoted, and stored at −80° C. until required for compound profiling assays.
(§5) Materials: ALDH2 was purchased from Abnova. Tris(hydroxymethyl)aminomethane (Tris) was purchased from MP Biomedicals. TCEP, ethylenediaminetetraacetic acid (EDTA), propionaldehyde, DMSO and Tween-20 were purchased from Sigma. Nicotinamide adenine dinucleotide (NAD) was obtained from Abcam. The NAD(P)H-Glo™ Detection System was purchased from Promega. White, non-binding surface, 384 well plates were supplied by Corning (#3574).
(§6) Method: Inhibition of ALDH1A3 was assessed using the NAD(P)H-Glo™ Detection System (Cat. No. G9062) from Promega. This assay detects the production of NADH from NAD by ALDH1A3 via the coupled enzymatic conversion of a proluciferin reductase substrate to generate a luminescent signal. Inhibition of ALDH1A3 by small molecule inhibitors will result in reduction or abrogation of luminescence signal increase above background. Inhibition of ALDH1A1, ALDH1A2 and ALDH2 (selectivity assays) were assessed using the same assay.
(§7) Compounds were dosed into Corning 384 well assay plates using an Echo acoustic dispenser to give 10 point curves in a 3-fold dilution series. Compounds were dispensed from a 20 mM DMSO stock and initially screened at a top concentration of 20 μM (ALDH1A3) or 250 μM (ALDH1A1, ALDH1A2 & ALDH2). […]

ALDH1A2 = molecular target: T2, ALDH1A2 (Homo sapiens, UniProt O94788); assay: as above
T2 construct: His-tag; made in house; host or cells: E. coli Rosetta (DE3)
T2 sequence (O94788 1-518): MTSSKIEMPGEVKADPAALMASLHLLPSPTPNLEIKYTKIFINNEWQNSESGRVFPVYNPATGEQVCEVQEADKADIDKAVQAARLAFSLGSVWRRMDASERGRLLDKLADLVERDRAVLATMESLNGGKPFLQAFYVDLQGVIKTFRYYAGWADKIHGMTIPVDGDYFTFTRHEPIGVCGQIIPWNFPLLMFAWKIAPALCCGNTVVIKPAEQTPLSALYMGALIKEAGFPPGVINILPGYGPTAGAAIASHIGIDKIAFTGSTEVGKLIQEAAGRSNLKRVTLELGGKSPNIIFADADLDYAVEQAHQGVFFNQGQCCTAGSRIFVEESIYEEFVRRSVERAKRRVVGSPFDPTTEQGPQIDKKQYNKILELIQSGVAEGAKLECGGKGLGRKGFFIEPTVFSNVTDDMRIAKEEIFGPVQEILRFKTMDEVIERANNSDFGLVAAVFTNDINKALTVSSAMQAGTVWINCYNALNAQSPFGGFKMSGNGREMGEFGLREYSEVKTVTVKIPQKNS
Description: as §1, §2, §3, §4, §5, §6, §7

Row | Structure (SMILES) | IC50 (ALDH1A1) [µM] | IC50 (ALDH1A2) [µM]
1 | O=C1CCc2cc(OCCN3CC(O)CC3c3cccc(F)c3)ccc2N1 (mixture of isomers) [ALDHI-2035, 6-[2-[2-(3-fluorophenyl)-4-hydroxy-pyrrolidin-1-yl]ethoxy]-3,4-dihydro-1H-quinolin-2-one] | 10 to 100 | 0.1 to 1
2 | CC1CN(CCOc2ccc3c(c2)CCC(=O)N3)C(c2ccccc2)CO1 (mixture of isomers) [ALDHI-2042, 6-[2-(2-methyl-5-phenyl-morpholin-4-yl)ethoxy]-3,4-dihydro-1H-quinolin-2-one] | 10 to 100 | 0.1 to 1
3 | O=C1CCc2cc(NC(=O)c3sc(N4CCOCC4)nc3-c3cccc(F)c3)ccc2N1 [ALDHI-1001, 4-(3-fluorophenyl)-2-morpholino-N-(2-oxo-3,4-dihydro-1H-quinolin-6-yl)thiazole-5-carboxamide] | ≥ 100 | ≥ 100
4 | CN(C)c1nc(-c2cccc(F)c2)c(C(=O)Nc2ccc3c(c2)CCC(=O)N3)s1 [ALDHI-1002, 2-(dimethylamino)-4-(3-fluorophenyl)-N-(2-oxo-3,4-dihydro-1H-quinolin-6-yl)thiazole-5-carboxamide] | ≥ 100 | 1 to 10
5 | O=C1CCc2cc(NC(=O)c3scnc3-c3cccc(F)c3)ccc2N1 [ALDHI-1003, 4-(3-fluorophenyl)-N-(2-oxo-3,4-dihydro-1H-quinolin-6-yl)thiazole-5-carboxamide] | ≥ 100 | 1 to 10
6 | O=C1CCc2cc(NC(=O)c3sc(N4CC(O)C4)nc3-c3cccc(F)c3)ccc2N1 [ALDHI-1004, 4-(3-fluorophenyl)-2-(3-hydroxyazetidin-1-yl)-N-(2-oxo-3,4-dihydro-1H-quinolin-6-yl)thiazole-5-carboxamide] | ≥ 100 | ≥ 100
7 | O=C1CCc2cc(NC(=O)c3sc(N4CCNCC4)nc3-c3cccc(F)c3)ccc2N1 [ALDHI-1005, 4-(3-fluorophenyl)-N-(2-oxo-3,4-dihydro-1H-quinolin-6-yl)-2-piperazin-1-yl-thiazole-5-carboxamide] | ≥ 100 | 10 to 100
8 | O=C1CCc2cc(NC(=O)c3c[nH]nc3-c3cccc(F)c3)ccc2N1 [ALDHI-1006, 3-(3-fluorophenyl)-N-(2-oxo-1,2,3,4-tetrahydroquinolin-6-yl)-1H-pyrazole-4-carboxamide] | ≥ 100 | –
9 | O=C1CCc2cc(NC(=O)c3ccccc3-c3cccc(F)c3)ccc2N1 [ALDHI-1007, 3′-fluoro-N-(2-oxo-1,2,3,4-tetrahydroquinolin-6-yl)-[1,1′-biphenyl]-2-carboxamide] | ≥ 100 | 1 to 10
10 | Cc1noc(-c2ccccc2C(=O)Nc2ccc3c(c2)CCC(=O)N3)n1 [ALDHI-1008, 2-(3-methyl-1,2,4-oxadiazol-5-yl)-N-(2-oxo-1,2,3,4-tetrahydroquinolin-6-yl)benzamide] | ≥ 100 | 1 to 10
11 | O=C1CCc2cc(NC(=O)c3ncsc3-c3cccnc3)ccc2N1 [ALDHI-1010, N-(2-oxo-3,4-dihydro-1H-quinolin-6-yl)-5-(3-pyridyl)thiazole-4-carboxamide] | ≥ 100 | 1 to 10
12 | O=C1CCc2cc(NC(=O)c3ncsc3-c3ccsc3)ccc2N1 [ALDHI-1011, N-(2-oxo-3,4-dihydro-1H-quinolin-6-yl)-5-(3-thienyl)thiazole-4-carboxamide] | ≥ 100 | 1 to 10
13 | O=C1CCc2cc(NC(=O)c3scnc3-c3ccccc3Cl)ccc2N1 [ALDHI-1012, 4-(2-chlorophenyl)-N-(2-oxo-3,4-dihydro-1H-quinolin-6-yl)thiazole-5-carboxamide] | 10 to 100 | –
14 | Cc1cccc(-c2ncsc2C(=O)Nc2ccc3c(c2)CCC(=O)N3)c1 [ALDHI-1013, 4-(m-tolyl)-N-(2-oxo-3,4-dihydro-1H-quinolin-6-yl)thiazole-5-carboxamide] | ≥ 100 | 1 to 10
15 | O=C1CCc2cc(NC(=O)c3cncnc3-c3cccc(F)c3)ccc2N1 [ALDHI-1018, 4-(3-fluorophenyl)-N-(2-oxo-3,4-dihydro-1H-quinolin-6-yl)pyrimidine-5-carboxamide] | ≥ 100 | –
